Assay results published in the supplement of paper PMC6045584.
± gives the standard deviation of the averaged measurements.

Tests used:
[1] = compound: NC1(c2ccc(-c3nc4ccn5c(=O)[nH]nc5c4cc3-c3ccccc3)cc2)CCC1 [MK2206]; test: surviving fraction relative to DMSO-only wells; higher = less growth inhibition; settings: exposure time: 5 days
Method in brief: (§1)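 Luminescence normalised to the median of DMSO-only wells defines surviving fraction, with viability read by CellTiter-Glo. Signal was recorded after 10 minutes at room temperature, once log-phase tumour cell lines seeded at 250–500 cells per well in 384-well plates had spent 24 hours settling and then five days under continuous exposure to inhibitors at 0.5, 1, 5, 10, 50, 100, 500 and 1000 nM.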

[2] = compound: CN(Cc1cnc2nc(N)nc(N)c2n1)c1ccc(C(=O)N[C@@H](CCC(=O)O)C(=O)O)cc1 [METHOTREXATE]; test: as above; settings: exposure time: 5 days
Method in brief: as §1

Test System	surviving fraction ([1]; 0.5 nM)	surviving fraction ([1]; 1 nM)	surviving fraction ([1]; 5 nM)	surviving fraction ([1]; 10 nM)	surviving fraction ([1]; 50 nM)	surviving fraction ([1]; 100 nM)	surviving fraction ([1]; 500 nM)	surviving fraction ([1]; 1000 nM)	surviving fraction ([2]; 0.5 nM)	surviving fraction ([2]; 1 nM)	surviving fraction ([2]; 5 nM)	surviving fraction ([2]; 10 nM)	surviving fraction ([2]; 50 nM)	surviving fraction ([2]; 100 nM)	surviving fraction ([2]; 500 nM)	surviving fraction ([2]; 1000 nM)
22RV1 PROSTATE	1.04 ± 0.045	0.987 ± 0.09	0.87 ± 0.09	0.921 ± 0.17	0.707 ± 0.12	0.762 ± 0.064	0.554 ± 0.05	0.582 ± 0.0085	1.06 ± 0.075	0.984 ± 0.11	0.946 ± 0.15	0.964 ± 0.12	0.452 ± 0.016	0.325 ± 0.013	0.285 ± 0.097	0.279 ± 0.099
93VU HEADNECK	1.06 ± 0.076	1.07 ± 0.14	1.1 ± 0.093	1.15 ± 0.048	1.02 ± 0.045	0.999 ± 0.11	0.789 ± 0.085	0.649 ± 0.038	1.03 ± 0.099	1.08 ± 0.091	1.16 ± 0.11	1.18 ± 0.063	0.854 ± 0.081	1.02 ± 0.051	0.702 ± 0.049	0.671 ± 0.018
143B BONE	0.912 ± 0.012	0.969 ± 0.042	0.974 ± 0.082	1.1 ± 0.1	0.957 ± 0.024	0.959 ± 0.064	0.96 ± 0.034	0.939 ± 0.033	1.06 ± 0.018	1.04 ± 0.016	1.03 ± 0.041	0.471 ± 0.022	0.379 ± 0.033	0.174 ± 0.014	0.085 ± 0.0071	0.0875 ± 0.016
A549 LUNG	1.05 ± 0.023	1.1 ± 0.028	1.06 ± 0.037	1.081 ± 0.0074	1.06 ± 0.017	1.08 ± 0.026	1.06 ± 0.024	1.09 ± 0.042	1.06 ± 0.07	1.06 ± 0.043	1.04 ± 0.023	1.06 ± 0.036	0.237 ± 0.0061	0.219 ± 0.0071	0.213 ± 0.0055	0.218 ± 0.0055
ASKA SYNOVIAL	0.991 ± 0.089	1.06 ± 0.014	1 ± 0.04	1.02 ± 0.16	0.771 ± 0.038	0.724 ± 0.064	0.482 ± 0.018	0.481 ± 0.022	1.13 ± 0.14	1.07 ± 0.067	1.13 ± 0.048	1.08 ± 0.083	1.23 ± 0.094	1.18 ± 0.087	1.19 ± 0.086	1.12 ± 0.09
BT20 BREAST	1.14 ± 0.045	1.15 ± 0.07	1.05 ± 0.034	1.01 ± 0.078	1.11 ± 0.12	1.16 ± 0.052	1.39 ± 0.066	1.16 ± 0.05	1.16 ± 0.083	1.15 ± 0.095	1.12 ± 0.075	1.1 ± 0.087	0.992 ± 0.1	0.995 ± 0.089	0.998 ± 0.021	0.989 ± 0.1
BT549 BREAST	1.07 ± 0.092	1.06 ± 0.048	0.982 ± 0.15	1.06 ± 0.07	0.837 ± 0.05	0.833 ± 0.091	0.616 ± 0.078	0.46 ± 0.043	1.11 ± 0.16	1.04 ± 0.034	1 ± 0.063	1.03 ± 0.11	0.107 ± 0.012	0.044 ± 0.0053	0.0323 ± 0.0055	0.039 ± 0.011
CADOES1 SOFT TISSUE	1.02 ± 0.12	0.925 ± 0.099	0.915 ± 0.097	0.926 ± 0.036	0.828 ± 0.088	0.815 ± 0.092	0.711 ± 0.077	0.591 ± 0.071	0.973 ± 0.11	1.02 ± 0.14	0.869 ± 0.052	0.672 ± 0.12	0.288 ± 0.013	0.229 ± 0.0093	0.226 ± 0.021	0.242 ± 0.011
CAL51 BREAST	0.986 ± 0.05	1.09 ± 0.079	1.06 ± 0.031	1.02 ± 0.035	0.996 ± 0.043	0.993 ± 0.072	0.731 ± 0.027	0.56 ± 0.03	1.06 ± 0.039	1.02 ± 0.021	1.02 ± 0.035	0.962 ± 0.052	0.243 ± 0.0049	0.142 ± 0.015	0.0995 ± 0.0051	0.09133 ± 0.00076
CAL120 BREAST	0.976 ± 0.071	0.977 ± 0.062	0.991 ± 0.068	1.01 ± 0.06	0.966 ± 0.051	0.951 ± 0.031	0.859 ± 0.038	0.823 ± 0.043	0.961 ± 0.032	0.96 ± 0.086	0.721 ± 0.027	0.31 ± 0.026	0.328 ± 0.0043	0.336 ± 0.0094	0.333 ± 0.0045	0.335 ± 0.012
CASKI CERVIX	0.905 ± 0.04	0.97 ± 0.055	0.951 ± 0.065	0.88 ± 0.011	0.736 ± 0.055	0.627 ± 0.039	0.44 ± 0.047	0.36 ± 0.022	0.941 ± 0.045	0.892 ± 0.058	0.946 ± 0.073	0.967 ± 0.031	0.533 ± 0.019	0.2303 ± 0.0015	0.192 ± 0.018	0.208 ± 0.027
CHLA90 AUTONOMIC GANGLIA	1.04 ± 0.058	1.01 ± 0.037	0.944 ± 0.013	0.929 ± 0.025	0.945 ± 0.024	0.997 ± 0.1	0.9213 ± 0.0085	0.947 ± 0.053	1.037 ± 0.006	1.01 ± 0.084	1 ± 0.035	0.995 ± 0.037	1.08 ± 0.11	1.13 ± 0.12	1.16 ± 0.11	1.19 ± 0.033
CME SYNOVIAL	1.25 ± 0.18	1.22 ± 0.043	1.35 ± 0.13	1.35 ± 0.099	1.18 ± 0.085	1.23 ± 0.18	1.13 ± 0.099	0.901 ± 0.093	1.2 ± 0.098	1.12 ± 0.069	0.755 ± 0.15	0.558 ± 0.062	0.612 ± 0.019	0.612 ± 0.034	0.561 ± 0.048	0.648 ± 0.046
COLO320DM LARGE INTESTINE	0.985 ± 0.038	1.12 ± 0.11	1.11 ± 0.052	1.08 ± 0.066	1.03 ± 0.15	0.969 ± 0.059	0.707 ± 0.047	0.557 ± 0.056	1.05 ± 0.045	1.04 ± 0.02	1.09 ± 0.056	0.648 ± 0.066	0.315 ± 0.011	0.315 ± 0.0081	0.307 ± 0.0097	0.295 ± 0.027
DU4475 BREAST	1.07 ± 0.035	1.08 ± 0.094	0.989 ± 0.11	1 ± 0.015	0.828 ± 0.1	0.784 ± 0.019	0.469 ± 0.047	0.444 ± 0.015	0.815 ± 0.2	0.988 ± 0.11	0.943 ± 0.16	0.933 ± 0.11	1.02 ± 0.049	1.09 ± 0.092	1.03 ± 0.13	1.01 ± 0.032
H23 LUNG	0.95 ± 0.072	1.04 ± 0.015	1.017 ± 0.008	1.03 ± 0.053	0.911 ± 0.043	0.883 ± 0.046	0.776 ± 0.067	0.6663 ± 0.0061	1.06 ± 0.054	0.996 ± 0.068	1.01 ± 0.062	0.461 ± 0.084	0.254 ± 0.015	0.236 ± 0.022	0.236 ± 0.016	0.222 ± 0.014
